Test results taken from PubChem BioAssay (NCI).
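All cell lines were grown in 96-well plates and treated with compound for 48 hours. TGI marks complete inhibition of growth.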

Columns and labels:
Assay in all cases: NCI anticancer screen, dose series, 48 h
[1] = test system: SNB-78 CNS
[2] = test system: KM20L2 colon
[3] = test system: SF-539 CNS
[4] = test system: HOP-62 NSCLC
[5] = test system: LXFL 529 NSCLC
[6] = test system: SK-OV-3 ovarian
[7] = test system: A498 renal
[8] = test system: OVCAR-3 ovarian
[9] = test system: HOP-18 NSCLC
[10] = test system: SNB-19 CNS
[11] = test system: HCT-116 colon
[12] = test system: UACC-257 melanoma
[13] = test system: A549 NSCLC
[14] = test system: HL-60(TB) leukemia
[15] = test system: OVCAR-4 ovarian
[16] = test system: RXF-631 renal
[17] = test system: CCRF-CEM leukemia
[18] = test system: DMS 273 small cell lung
[19] = test system: SW-620 colon
[20] = test system: NCI-H23 lung
[21] = test system: ACHN renal
[22] = test system: HCT-15 colon
[23] = test system: IGROV1 ovarian
[24] = test system: SF-295 CNS
[25] = test system: OVCAR-8 ovarian
[26] = test system: CAKI-1 renal
[27] = test system: UACC-62 melanoma
[28] = test system: KM12 colon
[29] = test system: SNB-75 CNS
[30] = test system: SK-MEL-28 melanoma
[31] = test system: EKVX NSCLC
[32] = test system: MALME-3M melanoma
[33] = test system: M19-MEL melanoma
[34] = test system: NCI-H460 lung
[35] = test system: NCI-H522 lung
[36] = test system: SN12C renal
[37] = test system: 786-0 renal
[38] = test system: TK-10 renal
[39] = test system: SF-268 CNS
[40] = test system: SK-MEL-2 melanoma
[41] = test system: MOLT-4 leukemia
[42] = test system: COLO 205 colon
[43] = test system: HCC-2998 colon
[44] = test system: M14 melanoma
[45] = test system: RXF 393 renal
[46] = test system: DLD-1 colon
[47] = test system: DMS 114 small cell lung
[48] = test system: OVCAR-5 ovarian
[49] = test system: HOP-92 NSCLC
[50] = test system: HT29 colon
[51] = test system: SK-MEL-5 melanoma
[52] = test system: UO-31 renal
[53] = test system: U251 CNS
[54] = test system: NCI-H226 lung
[55] = test system: XF 498 CNS

Measured: TGI

OC(CCNC12CC3CC(CC(C3)C1)C2)c1ccccc1 (stereo not given)
> 100 µM: all assays above
